Here are results for one compound from patent US20160175229A1, “MICROPARTICLES WITH CYCLODEXTRINS HAVING A DUAL LEVEL OF ENCAPSULATION” (LCA DERMATECH, priority 2013, published 2016).

This data set is described as follows: In vitro dermal absorption of hesperidin on Franz cells with skin explants (1st experimental part). It is filed as in vitro ADME. The conditions noted are these: hesperidin 0.5 weight % of sample. From the text:
The diffusion of a first active ingredient, hesperidin, in the different layers of the skin has been assessed based on the manner by which it has been applied on the skin, namely: • 1) in the case where the hesperidin has been encapsulated in microparticles according to the invention, and following Example 1 which has been detailed above, • 2) in the case where the hesperidin has been encapsulated in microparticles of polymers, • 3) in the case where the hesperidin has been provided in a free form, • 4) in the case where the hesperidin has been provided in the form of an inclusion complex with a cyclodextrin.
These 4 preparations have constituted 4 samples of cutaneous application of hesperidin. Hesperidin represented 0.5 weight % of the mass of each of these 4 samples.
Tests on these 4 samples have been carried out in accordance with the Directives: SCCS/1358/10 on date of Jun. 22, 2010 <<Basic criteria for the in vitro assessment of dermal absorption of cosmetic ingredient>>, OECD 28 of 2004. OECD being the abbreviation of <<Organization for Economic Co-operation and Development>> and SCCS being the abbreviation of <<Scientific Committee on Consumer Safety>>.
The material that has been used consisted of Franz cells. Skin explants, with an average surface area of 2.54 cm^2 and with a thickness comprised between 1.1 and 1.35 mm, have been used. […]

For the compound `COc1ccc([C@@H]2CC(=O)c3c(O)cc(O[C@@H]4O[C@H](CO[C@@H]5O[C@@H](C)[C@H](O)[C@@H](O)[C@H]5O)[C@@H](O)[C@H](O)[C@H]4O)cc3O2)cc1O` [hesperidin in a free form, hesperidin], the “amount of hesperidin cumulated in the dermis during 24 hours” value came out at 1.98 μg/cm^2.
